The compounds below were run on bone resorption (parietal bone) (assay: Bone resorption-inhibitory activity (45Ca release from newborn mouse parietal bone, hPTH (1-34) stimulated, method of Raisz)). Conditions: 5 μM, Table 20, average of four pairs, read-out: bone resorption-inhibitory action, % against control.
Type: cell-based, ICR mouse
Excerpt: The method for determining the bone resorption-inhibitory activity of the Compound (I) and the results are shown in the following.
Bone resorption-inhibitory activity
The determination of the bone resorption-inhibitory activity basically followed the method of Raisz [J. Clin. Invest., vol. 44, pp. 103-116 (1965)].
A 1-2 days old new born ICR mouse was intraperitoneally administered with 1.5μ Ci ^45 Ca (CaCl2 solution of isotope of calcium) and parietal bone was asceptically removed the next day. The parietal bone was split into two along the central sature line and one of them was used as a control and the other was used for the experiment. The bone was preincubated in 0.5 ml of a BGJb medium (Fitton-Jackson modification, GIBCO Laboratories, U.S.A.) added with the test compound to a concentration of 5 μM or 20 μM and bovine serum albumin (1 mg/ml) at 37° C. for 2 days, and further incubated in the aforementioned medium containing 50 nM hPTH (1-34) for 3 days. After the incubation, the radioactivity of ^45 Ca in the medium and in the bone was measured and the ratio (%) of ^45 Ca released from the bone into the medium was calculated. [formula]
Using the bone obtained from the same mouse and treated in the same manner without the test compound as a control, the ratio (%) against the control was calculated according to the following equation. [formula]
The average of these values obtained from four pairs from each group was calculated.

Point of comparison: `CCc1cc2c(s1)-n1c(C3CCCCC3)nnc1C(NC(=O)Nc1ccccc1OC)N=C2c1ccccc1Cl` (stereo not shown) [compound 100], inhibition at 5 µM 55.5%. Against it:
- CCCCc1cc2c(s1)-n1c(C)nnc1C(NC(=O)Nc1cccc(C)c1)N=C2c1ccc(Cl)cc1 (stereo not shown) [compound 98] — lower, 35%
- CCc1cc2c(s1)-n1c(C)nnc1C(NC(=O)Nc1cccc(C)c1)N=C2c1ccc(C)cc1 (stereo not shown) [compound 86] — lower, 30.3%

Same assay, conditions: 20 μM, Table 20, average of four pairs, read-out: bone resorption-inhibitory action, % against control

Point of comparison: `CCCCCCCCCCCc1nnc2n1-c1sc3c(c1C(c1ccccc1Cl)OC2)CCCC3` (stereo not shown) [compound 307], inhibition at 20 µM 42.4%. Against it:
- CCCCCCCc1nnc2n1-c1sc(CC)cc1C(c1ccc(OC)cc1)OC2 (stereo not shown) [compound 348] — lower, 30.3%
- CCc1cc2c(s1)-n1c(C)nnc1C(NS(=O)(=O)c1ccc(C)cc1)N=C2c1ccc(Cl)cc1 (stereo not shown) [compound 254] — lower, 32.5%
- CCc1cc2c(s1)-n1c(C)nnc1C(NC(=O)Cc1ccccc1)N=C2c1ccccc1Cl (stereo not shown) [compound 255] — higher, 54.3%
- Cc1nnc2n1-c1sc(CCc3ccc(CC(C)C)cc3)cc1C(c1ccccc1Cl)OC2 (stereo not shown) [compound 324] — lower, 33.1%
- CC(C)Cc1ccc(CCc2cc3c(s2)N(CCN(C)C)C(=O)CN=C3c2ccccc2Cl)cc1 [compound 64] — lower, 25.2%
- Cc1nnc2n1-c1sc(CCc3ccc(CC(C)C)cc3)cc1C(c1ccccc1Cl)=NC2Cc1ccccc1 (stereo not shown) [compound 46] — lower, 21.1%
- CCc1cc2c(s1)-n1c(C)nnc1C(CC(=O)Nc1ccccc1OC)N=C2c1ccc(Cl)cc1 (stereo not shown) [compound 250] — lower, 27.3%

Same assay, conditions: read-out: bone resorption-inhibitory action, % against control

Point of comparison: `Cc1nnc2n1-c1sc(CCC(=O)N3CCOCC3)cc1C(c1ccccc1Cl)=NC2` [compound 19], inhibition at 20 µM 61.7%. Against it:
- CCCCCCc1cc2c(s1)-n1c(C)nnc1CN=C2c1ccccc1C [compound 22] — lower, 23.4%
- CCCc1nnc2n1-c1sc(CCc3ccc(CC(C)C)cc3)cc1C(c1ccccc1Cl)=NC2 [compound 35] — lower, 20%
- CCCCCCCCCCCCc1cc2c(s1)-n1c(C)nnc1CN=C2c1ccccc1Cl [compound 27] — lower, 17%
- CC(C)Cc1ccc(CCc2nnc3n2-c2ccccc2C(c2ccc(Cl)cc2)=NC3)cc1 [compound 517] — lower, 47.3%
- CCOC(=O)C1(NC(=O)Nc2cccc(C)c2)N=C(c2ccc(Cl)cc2)c2ccccc2-n2c(C)nnc21 (stereo not shown) [compound 501] — lower, 29.5%
- Clc1ccc2c(c1)C(c1ccccc1Cl)=NCc1nccn1-2 [compound 70] — lower, 50.3%
- Cc1cccc(NC(=O)OCC2N=C(c3ccccc3)c3ccccc3-n3c(C)nnc32)c1 (stereo not shown) [compound 510] — lower, 28.3%
